Measurements as given in ChEMBL document CHEMBL1158734, “Chemical conversion of nocathiacin I to nocathiacin II and a lactone analogue of glycothiohexide alpha” (2005).
Converted amounts (≈) assume the structure as drawn.

Columns and labels:
Type in all cases: functional
Staphylococcus aureus [1] = test: Antibacterial activity against Staphylococcus aureus A15090
Staphylococcus aureus [2] = test: Protective activity against Staphylococcus aureus A15090 infected in sc dosed mouse; conditions: read-out: PD50
Streptococcus pneumoniae = test: Antibacterial activity against Streptococcus pneumoniae A28272
Enterococcus faecalis = test: Antibacterial activity against Enterococcus faecalis A20688

Row | Structure (SMILES) | MIC (Staphylococcus aureus [1]) | ED50 (Staphylococcus aureus [2]) | MIC (Streptococcus pneumoniae) | MIC (Enterococcus faecalis)
1 | C=C(NC(=O)c1csc(-c2nc3c(cc2O)-c2nc(cs2)C(=O)N[C@@H]([C@@H](C)O)C(=O)N/C(=C(\C)OC)c2nc(cs2)C(=O)N[C@@H]2c4nc(cs4)C(=O)N[C@@H](COC(=O)c4c5c6c(cccc6n4O)COC(=O)[C@@H](O[C@H]4C[C@](C)(O)[C@H](N(C)C)[C@H](C)O4)[C@H]2OC5)c2nc-3cs2)n1)C(N)=O [MJ347-81F4 A] | 7 ng/mL (≈ 4.87 nM) | 0.31 mg/kg | 2 ng/mL (≈ 1.39 nM) | 30 ng/mL (≈ 20.9 nM)
2 | C=C(NC(=O)c1csc(-c2nc3c(cc2O)-c2nc(cs2)C(=O)N[C@@H]([C@@H](C)O)C(=O)N/C(=C(\C)OC)c2nc(cs2)C(=O)N[C@@H]2c4nc(cs4)C(=O)N[C@@H](COC(=O)c4[nH]c5cccc6c5c4CO[C@@H]2[C@H](O[C@H]2C[C@](C)(O)[C@H](N(C)C)[C@H](C)O2)C(=O)OC6)c2nc-3cs2)n1)C(N)=O [NOCATHIACIN II] | 7 ng/mL (≈ 4.92 nM) | < 0.62 mg/kg | 0.5 ng/mL (≈ 0.352 nM) | 150 ng/mL (≈ 106 nM)
3 | CO/C(C)=C1/NC(=O)[C@H]([C@@H](C)O)NC(=O)c2csc(n2)-c2cc(O)c(-c3nc(C(N)=O)cs3)nc2-c2csc(n2)[C@@H]2COC(=O)c3c4c5c(cccc5n3O)COC(=O)[C@@H](O[C@H]3C[C@](C)(O)[C@H](N(C)C)[C@H](C)O3)[C@@H](OC4)[C@H](NC(=O)c3csc1n3)c1nc(cs1)C(=O)N2 [NOCATHIACIN IV] | 3 ng/mL (≈ 2.19 nM) | 1.07 mg/kg | 1 ng/mL (≈ 0.731 nM) | 7 ng/mL (≈ 5.12 nM)
4 | CO/C(C)=C1/NC(=O)[C@H]([C@@H](C)O)NC(=O)c2csc(n2)-c2cc(O)c(-c3nc(C(N)=O)cs3)nc2-c2csc(n2)[C@@H]2COC(=O)c3[nH]c4cccc5c4c3CO[C@H]([C@H](O[C@H]3C[C@](C)(O)[C@H](N(C)C)[C@H](C)O3)C(=O)OC5)[C@H](NC(=O)c3csc1n3)c1nc(cs1)C(=O)N2 [THIAZOMYCIN C] | 60 ng/mL (≈ 44.4 nM) | 4.35 mg/kg | 30 ng/mL (≈ 22.2 nM) | 125 ng/mL (≈ 92.4 nM)
